Experimental data taken from patent US9422521B2, “Differentiation of pluripotent stem cells with a kinase inhibitor or PGI2” (ES Cell International Pte Ltd., priority 2005, dated 2016).
“Also recorded” adds a separate entry of the source.

Experiments:
[1] = test system: hES cells; test: Cell count per well after EB differentiation
Description: (§1) To more accurately determine the number of cardiomyocytes in the differentiated cell population, EBs were collected, washed in PBS^− and incubated with 0.05% Trypsin for 5 min at 37° C. Cell clumps were triturated and incubated for another 5 min at 37° C. Trypsin activity was inactivated with serum containing media and cells were collected via centrifugation at 2500 rpm for 4 min at 4° C. The cell pellet was resuspended in PBS for cell count and cytospun onto glass slides at 500 rpm for 5 min at low acceleration using 1×10^5 cells. Cells were stained immediately (see previous example) and a cell count performed.
(§2) Readouts were performed on day 13: the percentage of beating EBs was defined, the average cell number per well was counted via a cytometer after EBs dissociation with trypsin, the percentage of cardiomyocytes was divined via cytospin followed by cardiomyocyte specific anti α-Myosin Heavy Chain stain (MF20 antibody), and RNA was harvest for qRT-PCR.

[2] = test system: hES cells; test: Quantification of cardiomyocytes by Cytospin and MF20 staining; assay type: cell-based, human
Description: as §1, §2

[3] = test system: hES cells; test: hES differentiation as embryoid bodies (EBs) in suspension culture, scoring of beating EBs; assay type: cell-based, human; conditions: for number of EBs with beating foci: 5 μM in END2-CM, added early (during or shortly after EB formation), day 12, vs END2-CM alone
Description: This method describes hES differentiation through the formation of embryoid bodies (EB) from hES cells grown on MEF. EBs can also be generated from hES grown in feeder free systems. Formed EBs were then cultured in respective media such as SF or END2-CM. […] Enzymatically passaged hES cells grown on feeder cells were washed once with PBS^+ and treated with Collagenase IV (1 mg/ml) for 3-4 min at 37° C. The Collagenase IV solution was replaced by DMEM and the cells were mechanically dissociated with a pipette tip. Cells were then harvested using a cell scraper and the cell suspension was transferred to a 50 ml tube (Falcon). Cell clumps were collected by gravity and the supernatant was aspirated. Cells were resuspended in fresh DMEM medium aiming to uniformly disperse the cell clumps in the suspension. An equal volume of the cell suspension was then transferred to ultra low attachment plates (Costar). […] Alternatively, cells can be seeded into plates under conditions supporting cell adherence to induce differentiation of hES attached to a surface. In suspension culture, EBs were formed in ultra low attachment plates in SF medium over night. After over night incubation SF medium was replace by fresh SF medium or END2-CM respectively for further differentiation. Subsequent medium changes were performed every 3-4 days. Usually, cells were cultured over a period of 12-13 days before the visual analysis of the proportion of beating EBs under a microscope was performed followed by cell collection for additional readouts. Multiple beating areas on single EBs were not counted separately. […] Cell harvest and analysis at time points other then 12-13 days after EB formation is indicated in the respective examples and figures of this embodiment. […] An average value per well was calculated and presented. hES differentiation in suspension culture: EBs were formed in ultra low attachment plates in SF medium over night. After over night incubation SF medium was replace by fresh SF medium or END2-CM. […] Subsequent medium changes were performed every 3-4 days. Usually, cells were cultured over a period of 12-13 days. […] Medium change was performed at day 3, 6 and 9 after EB formation.

[4] = test system: hES cells; test: qRT-PCR of cardiac and lineage marker genes in differentiating EBs; assay type: cell-based, human
Description: RNA extraction: EBs at the end of the twelve day period or as indicated in the text were harvested. All EBs from 3 wells were pooled and washed once in PBS^−. Trizol (Invitrogen) was added before freezing the EBs at −80° C. to enhance cell lysis. Frozen samples were thawed and harshly mixed. Chloroform was added to the sample and incubated for 3 min at room temperature. The sample was centrifuged for 15 min at 13000 rpm at 4° C. and the aqueous phase collected. An equal volume of 70% ethanol was added before the sample was loaded onto an RNeasy mini column (Qiagen). The column was centrifuged for 15 sec at ≧8000 g. The rest of the purification steps were performed according to manufacturer's instructions. RNA was eluted in RNase-free water. 5 μg of the RNA sample were then treated with DNase (Invitrogen) in a volume of 50 μl. The mixture was incubated at room temperature for 30 min and heat inactivated for 10 min at 80° C. before cooling rapidly on ice.
Reverse transcriptase: 5 μg of total RNA was mixed with 2 μl of 3 μg/μl random primers (Invitrogen) in a final volume of 100 μl. 75 μl were reversed transcribed (BioLabs), the remaining 25 μl served as a negative control. Samples were incubated for 1 hour at 37° C. before the reaction was terminated for 5 min at 95° C.
Real-time PCR: The PCR reaction was performed on 100 ng of cDNA, with 15 μl of 2× IQ™ SYBR® Green Supermix (Biorad) in a final reaction volume of 30 μl. To minimize variations in the triplicates, a master mix was prepared containing all reaction components except cDNA. PCR was performed on an iCycler™ (Biorad), annealing at 58° C. for 30 sec, extension at 72° C. for 45 sec, 40 cycles in total. Relative expression values were obtained by normalizing CT values of the tested genes in comparison with CT values of the housekeeping gene α-Actin using the ΔΔ CT method (19). The samples were subjected to PCR amplification with human gene primers including: […]
The samples were subjected to PCR amplification with human gene primers including: […]
The samples were subjected to PCR amplification with human gene primers including MESP1 (sense primer: […]; antisense primer: […]).

[5] = test system: hES cells; test: EB morphology, H&E staining on paraffin sections; assay type: cell-based, human
Description: Paraffin sections: Beating EBs were collected and fixed for 15 min in 10% formalin at room temperature. EBs were then embedded in 1.5% agarose and dehydrated through 70% to 100% ethanol with a last incubation in xylene. The agarose block was then embedded in paraffin. 5 μm thick sections were cut in ribbons, floated on a warm water bath of 45° C., mounted on slides, and left to air dry at 37° C. overnight.
For hES culture on human feeder cells, see Example 2. For Immunohistochemistry performed here, see example 3. H&E staining on Paraffin sections was performed at the BSF facility (Biopolis).

[6] = test system: hES cells; test: hES differentiation as embryoid bodies (EBs) in suspension culture, scoring of beating EBs; assay type: cell-based; conditions: hES maintained on human feeder (HF), 12 days; END2-CM only, or SB203580 at 5 μM in END2-CM
[7] = test system: JNK and/or p42/p44 MAP kinase; conditions: cited from earlier work
[8] = test system: mouse embryonic carcinoma cell line P19; conditions: cited from earlier work
[9] = test system: hES cells; conditions: Vitamin C added to the END2-hES co-culture system; cited from earlier work
[10] = Example 5, END2-CM alone, or SB203580 at 5 μM in END2-CM
[11] = inhibitor added day 6 onwards, END2-CM
[12] = high concentration (20 μM) in END2-CM
[13] = 0.2 μM and 2 μM in bSF, 12 days
[14] = END2-CM supplemented with 0.1 mM Vitamin C, day 12

## CC(=O)O [AA, Acetic Acid]
[1]; bSFS + 0.5 μM Acetic Acid (AA)
  day 13 cell count per well of a 6-well plate: 1.18 × 10^6
[1]; bSFS + 5.0 μM AA
  day 13 cell count per well of a 6-well plate: 1.03 × 10^6
[2]; 0.5 μM or 5 μM AA in bSFS, day 13
  proportion of cardiomyocytes: slightly increased
[3]; 0.5 μM in bSFS vs bSFS alone
  percentage of beating EBs on day 13: about the same
[3]; 5 μM in bSFS vs bSFS alone
  percentage of beating EBs on day 13: slide increase
[4]; 0.5 μM in bSFS vs bSFS alone
  relative expression of α-MHC: about the same
[4]; 5 μM in bSFS vs bSFS alone
  relative expression of α-MHC: slide increase
[4]; AA at a 0.5 μM concentration in bSFS (second statement)
  fold increase in relative α-MHC expression: about 2 fold

## C[S+]([O-])c1ccc(-c2nc(-c3ccc(F)cc3)c(-c3ccncc3)[nH]2)cc1 (centres unmarked) [SB203580, 4-(4-Fluorophenyl)-2-(4-methylsulfinylphenyl)-5-(4-pyridyl)1H-imidazole]
[1]; CM + 5 μM SB203580
  day 13 cell count per well of a 6-well plate: 3.63 × 10^6
[1]; Example 5, END2-CM alone, or END2-CM supplemented with 5 μM SB203580
  total cell number at day 12: 1.16×10^6 cells/well
[2]; 5 μM in END2-CM, day 13
  percentage of cardiomyocytes: slightly elevated
[2]; 5 μM in bSFS, day 13
  proportion of cardiomyocytes: almost tripled
[2]; [10]
  cardiomyocytes (MF-20 positive) in EBs at day 12: 21.7%
[3]
  number of EBs with beating foci: increased
[3]; 15 μM or more in END2-CM
  beating: declined
[3]; 20 μM in END2-CM
  formation of beating foci at day 12: almost completely suppressed
[3]; 25 μM in END2-CM
  beating: no beating detectable
[3]; END2-CM with SB203580
  size of the contracting area and beating frequency of beating foci: positive effect
[3]; [10]
  beating EBs at day 12: 78%
[3]; SF medium supplemented with 5 μM
  beating foci on EBs: beating foci were detected
[3]; added during the first 3 days of differentiation
  number of beating foci per EB at day 12: remarkable increase
[3]; hES batches less responsive to END2-CM (below 50% beating), SB203580 in END2-CM
  percentage of beating EBs: more than 60%
[3]; [11]
  number of beating foci: no effect
[3]; up to 10 μM in END2-CM, 12 days, vs non-supplemented END2-CM
  number of beating foci: increase
[5]; higher concentrations in END2-CM, 12 days
  morphology of EBs: more compact and do not form epithelial visceral endoderm
[5]; higher doses (>5 μM-25 μM), END2 CM
  appearance of neural progenitor population in EBs: morphological uniform neuroepithelial EBs with clear rosette structure formed
[5]; serum free condition + 10 μM, 12 days
  neurite-like outgrowth of attached EBs: high number of neurite-like outgrowth
[6]
  percentage of beating EBs: 60-87%
[7]
  inhibition of JNK and/or p42/p44 MAP kinase: does not inhibit
[8]
  cardiomyocyte differentiation in P19: prevented cardiomyocyte differentiation
[4]; 5 μM from the start in END2-CM vs END2-CM alone
  expression of cardiac markers at day 12: increased expression
[4]; 5 μM in END2-CM
  Brachyury expression around day 4: strong upregulation
  expression of skeletal (Myf5), endoderm (Sox17) or neuroectoderm (Sox1) markers: did not induce expression
  expression of the cardiac markers Nkx2.5 and α-MHC at day 12: higher expression
[4]; 5 and 20 μM in END2-CM
  Brachyury expression: upregulated
[4]; END2-CM supplemented with 25 μM
  Sox1 expression: significantly expressed
[4]; Example 7, 5 μM in END2-CM
  α-MHC expression at day 12: increased
[4]; Example 7, 20 μM in END2-CM
  expression of precardiac mesoderm (Nkx2.5) and cardiac marker genes: reduced
[4]; SF medium, from 10 μM onwards
  Sox1 expression: upregulated
[4]; [12]
  Sox1 expression: strongly upregulated
  Sox17 expression at day 12: higher expressed
[4]; higher concentration (20 μM) in END2-CM
  Mesp1 expression: comparable to EBs grown in SF medium
[4]; highest concentration (25 μM) in END2-CM
  expression of α-MHC: barely detectable
[4]; [11]
  expression of α-MHC at day 12: no effect
[4]; low concentration (5 μM) in END2-CM
  Mesp1 expression: higher expressed
[4]; over 10 μM in END2-CM
  expression of α-MHC: declined

## Oc1ccc(-c2nc(-c3ccncc3)c(-c3ccc(F)cc3)[nH]2)cc1 [SB202190]
[3]
  number of EBs with beating foci: the same effect; also recorded: comparable cardiogenic effect

## CCCCC[C@H](O)/C=C/[C@@H]1[C@H]2C/C(=C/CCCC(=O)[O-])O[C@H]2C[C@H]1O.[Na+] [PGI2, (5Z, 9α, 11α, 13E, 15S)-6,9-Epoxy-11,15-dihydroxyprosta-5,13-dien-1-oic acid Sodium salt]
[3]; [13]
  fold higher percentage of beating EBs: 3 fold
[3]; bSF with PGI2 at 0.2 μM and 2 μM
  EB beating levels and marker gene expression levels compared to END2-CM: equivalent or even higher
[4]; [13]
  fold higher relative expression of the cardiac marker α-MHC: 2-3 fold

## O=C1O[C@H]([C@@H](O)CO)C(O)=C1O [Vitamin C]
[3]; [14]
  increase in the number of beating EBs: up to 20%
[9]
  increase in the number of beating areas: up to 40%
[4]; [14]
  expression of cardiac specific markers ANF or α-MHC: increased
